Row | SMILES | melting point
1 | COC(=O)c1nc(N2CCOC2=O)c2cc(Cc3ccc(F)cc3)cnc2c1O | 256 °C (dec.)
2 | COC(=O)c1nc(C(=O)NS(=O)(=O)c2ccccc2)c2cc(Cc3ccc(F)cc3)cnc2c1O | 228 to 229 °C
3 | COC(=O)c1nc(N2CCCC2=O)c2cc(Cc3ccc(F)cc3)cnc2c1O | 260 to 262 °C
4 | COCCNC(=O)c1nc(C(=O)OC)c(O)c2ncc(Cc3ccc(F)cc3)cc12 | 145 to 146 °C
5 | CC(=O)N1CCC(OC(=O)c2nc(C#CCNS(C)(=O)=O)c3cc(Cc4ccc(F)cc4)cnc3c2O)CC1 | 192 to 193 °C
6 | COC(=O)c1nc(N2C(=O)COCC2=O)c2cc(Cc3ccc(F)cc3)cnc2c1O | 182 to 184 °C
7 | CN(C)NC(=O)c1nc(C#CC2=CCCC2)c2cc(Cc3ccc(F)cc3)cnc2c1O | 206 to 207 °C
8 | COCCNC(=O)c1nc(C#CCNS(C)(=O)=O)c2cc(Cc3ccc(F)cc3)cnc2c1O | 198 °C
9 | CN(C)NC(=O)c1nc(C#CCNS(C)(=O)=O)c2cc(Cc3ccc(F)cc3)cnc2c1O | 229 to 230 °C (dec.)
10 | COC(=O)c1nc(NS(=O)(=O)NC(=O)OC(C)C)c2cc(Cc3ccc(F)cc3)cnc2c1O | 170 to 172 °C
11 | COCCNC(=O)c1nc(NS(C)(=O)=O)c2cc(Cc3ccc(F)cc3)cnc2c1O | 241 to 242 °C
12 | COC(=O)c1cc(Br)c2cc(Cc3ccc(F)cc3)cnc2c1O | 152 °C
13 | CCCOC(=O)c1cc(C(=O)O)c2cc(Cc3ccc(F)cc3)cnc2c1O | 249 to 251 °C (dec.)
14 | COCCOC(=O)c1cc(C(=O)O)c2cc(Cc3ccc(F)cc3)cnc2c1O | 234 to 235 °C (dec.)
15 | CC(=O)c1cc(C(=O)O)c2cc(Cc3ccc(F)cc3)cnc2c1O | 239 to 242 °C
16 | COCCCC(=O)c1cc(C(=O)O)c2cc(Cc3ccc(F)cc3)cnc2c1O | 226 to 228 °C
17 | COCCCCC(=O)c1cc(C(=O)O)c2cc(Cc3ccc(F)cc3)cnc2c1O | 216 to 218 °C
18 | COC(=O)c1cc(NC(=O)C(F)(F)F)c2cc(Cc3ccc(F)cc3)cnc2c1O | 191 to 192 °C
19 | O=C1CCc2cc3cc(Cc4ccc(F)cc4)cnc3c(O)c21 | 195 to 197 °C
20 | COC(=O)c1cc(NC(=N)N)c2cc(Cc3ccc(F)cc3)cnc2c1O.Cl | 261.5 to 262.5 °C
21 | COC(=O)c1cc(N(C=O)C=O)c2cc(Cc3ccc(F)cc3)cnc2c1O | 243 to 245 °C
22 | CCN(CCOC)C(=O)c1cc(C(=O)OC)c(O)c2ncc(Cc3ccc(F)cc3)cc12 | 90 to 91 °C
23 | CCN(c1cc(C(=O)OC)c(O)c2ncc(Cc3ccc(F)cc3)cc12)S(C)(=O)=O | 149 to 150 °C

Row | SMILES | melting point
24 | COC(=O)c1cc(C(=O)OCc2ccccc2)c2cc(Cc3ccc(F)cc3)cnc2c1O | 131 to 133 °C
25 | COC(=O)c1cc(C(=O)NCCN)c2cc(Cc3ccc(F)cc3)cnc2c1O | 229 to 230 °C
26 | COC(=O)c1cc(Cc2cc(C(=O)OC)c(O)c3ncc(Cc4ccc(F)cc4)cc23)c2cc(Cc3ccc(F)cc3)cnc2c1O | 244 to 245 °C
27 | COC(=O)c1cc(CC#N)c2cc(Cc3ccc(F)cc3)cnc2c1O | 173 to 175 °C
28 | COC(=O)c1cc(CC(N)=O)c2cc(Cc3ccc(F)cc3)cnc2c1O | 209 to 211 °C
29 | COC(=O)Cc1cc(C(=O)OC)c(O)c2ncc(Cc3ccc(F)cc3)cc12 | 168 to 169 °C
30 | COC(=O)c1cc(CC(=O)O)c2cc(Cc3ccc(F)cc3)cnc2c1O | 218 to 220 °C
31 | NC(=O)c1cc(C(=O)O)c2cc(Cc3ccc(F)cc3)cnc2c1O | 212 to 213 °C
32 | CONC(=O)c1cc(C(=O)OC)c2cc(Cc3ccc(F)cc3)cnc2c1O | 186 to 188 °C
33 | COCCOC(=O)c1cc(C(=O)NOC)c(O)c2ncc(Cc3ccc(F)cc3)cc12 | 166 to 168 °C
34 | COCCNC(=O)c1cc(C(=O)OC)c2cc(Cc3ccc(F)cc3)cnc2c1O | 165 to 167 °C
35 | COC(=O)c1cc(CCC(=O)O)c2cc(Cc3ccc(F)cc3)cnc2c1O | 254 to 256 °C
36 | COC(=O)CCc1cc(C(=O)OC)c(O)c2c1CC(Cc1ccc(F)cc1)CN2 (centres unmarked) | 140 to 141 °C
37 | COC(=O)c1cc(-c2ccccc2C(=O)O)c2cc(Cc3ccc(F)cc3)cnc2c1O | 250 to 252 °C
38 | COC(=O)c1cc(C(N)=O)c2cc(Cc3ccc(F)cc3)cnc2c1OC(C)=O | 206 °C
39 | CCNC(=O)Nc1cc(C(=O)OC)c(O)c2ncc(Cc3ccc(F)cc3)cc12 | 280 to 282 °C
40 | COC(=O)c1cc(NC(=O)C2CCCCC2)c2cc(Cc3ccc(F)cc3)cnc2c1O | 250 to 251 °C
41 | COC(=O)c1cc(NC(=O)c2ccccc2)c2cc(Cc3ccc(F)cc3)cnc2c1O | 247 to 249 °C
42 | COC(=O)c1cc(NC(=O)Cc2ccc(F)cc2)c2cc(Cc3ccc(F)cc3)cnc2c1O | 239 to 240 °C
43 | CNC(=S)Nc1cc(C(=O)OC)c(O)c2ncc(Cc3ccc(F)cc3)cc12 | 189 to 191 °C
44 | COC(=O)c1cc(NC(=O)c2ccc(Cl)cc2)c2cc(Cc3ccc(F)cc3)cnc2c1O | 253 to 254 °C
45 | COC(=O)c1cc(N2CCOCC2)c2cc(Cc3ccc(F)cc3)cnc2c1O | 119 to 120 °C
46 | COC(=O)c1cc(N2CCCCC2)c2cc(Cc3ccc(F)cc3)cnc2c1O | 133 to 134 °C

Row | SMILES | melting point
47 | CCC(=O)c1cc(N2CCCC2=O)c2cc(Cc3ccc(F)cc3)cnc2c1O | 202 to 203 °C
48 | COC(=O)C(=O)Nc1cc(C(=O)OC)c(O)c2ncc(Cc3ccc(F)cc3)cc12 | 168 to 170 °C
49 | COC(=O)c1cc(NC(=O)COc2ccccc2)c2cc(Cc3ccc(F)cc3)cnc2c1O | 172 to 173 °C
50 | COC(=O)c1cc(NC(=O)c2cc(C)on2)c2cc(Cc3ccc(F)cc3)cnc2c1O | 182 to 183 °C
51 | CC(=O)N1CCC(OC(=O)c2cc(C(=O)O)c3cc(Cc4ccc(F)cc4)cnc3c2O)CC1 | 230 to 232 °C
52 | CC(=O)N1CCC(OC(=O)c2cc(C(=O)NN(C)C)c3cc(Cc4ccc(F)cc4)cnc3c2O)CC1 | 92 to 93 °C
53 | CC(=O)NNC(=O)c1cc(C(=O)OC2CCN(C(C)=O)CC2)c(O)c2ncc(Cc3ccc(F)cc3)cc12 | 129 to 131 °C
54 | COCCC(=O)Nc1cc(C(=O)OC2CCN(C(C)=O)CC2)c(O)c2ncc(Cc3ccc(F)cc3)cc12 | 89 to 90 °C
55 | COC(=O)c1cc(C#N)c2cc(Cc3ccc(F)cc3)cnc2c1O | 178 to 179 °C
56 | COC(=O)c1cc(C(=O)Nc2nccs2)c2cc(Cc3ccc(F)cc3)cnc2c1O | 258 to 259 °C
57 | COC(=O)c1cc(C(=O)NCCN2CCOCC2)c2cc(Cc3ccc(F)cc3)cnc2c1O | 198 to 199 °C
58 | COC(=O)c1cc(C(=O)[O-])c2cc(Cc3ccc(F)cc3)cnc2c1O.[Na+] | > 208 °C
59 | COC(=O)c1cc(C(=O)O)c2cc(Cc3ccc(F)cc3)cnc2c1O.NCCN | 164 °C
60 | COC(=O)c1cc(C(=O)NCCC2CCOCC2)c2cc(Cc3ccc(F)cc3)cnc2c1O | 198 to 199 °C
61 | COC(=O)c1cc(C(=O)NNS(C)(=O)=O)c2cc(Cc3ccc(F)cc3)cnc2c1O | > 250 °C
62 | COC(=O)c1cc(C(=O)N2CCCOCC2)c2cc(Cc3ccc(F)cc3)cnc2c1O | 136 to 137 °C
63 | COC(=O)c1cc(C(=O)N2CCSCC2)c2cc(Cc3ccc(F)cc3)cnc2c1O | 184 to 185 °C
64 | COC(=O)c1cc(C(=O)N2COCC2(C)C)c2cc(Cc3ccc(F)cc3)cnc2c1O | 149 to 150 °C
65 | COC(=O)c1cc(C(=O)NN2CCCCC2)c2cc(Cc3ccc(F)cc3)cnc2c1O | 233 to 234 °C
66 | COC(=O)c1cc(C(=O)Nc2ccncn2)c2cc(Cc3ccc(F)cc3)cnc2c1O | 241 to 242 °C
67 | COCC(=O)NNC(=O)c1cc(C(=O)OC)c(O)c2ncc(Cc3ccc(F)cc3)cc12 | 181 to 182 °C
68 | C#CCNC(=O)c1cc(C(=O)OC)c(O)c2ncc(Cc3ccc(F)cc3)cc12 | 192 to 193 °C
69 | COC(=O)c1cc(C(=O)N2CCC(C(N)=O)CC2)c2cc(Cc3ccc(F)cc3)cnc2c1O | 235 to 238 °C

Row | SMILES | melting point
70 | COCCCNC(=O)c1cc(C(=O)OC)c(O)c2ncc(Cc3ccc(F)cc3)cc12 | 166 to 167 °C
71 | COC(=O)c1cc(C(=O)NCC(=O)O)c2cc(Cc3ccc(F)cc3)cnc2c1O | 246 to 247 °C
72 | CCOCCNC(=O)c1cc(C(=O)OC)c(O)c2ncc(Cc3ccc(F)cc3)cc12 | 174 to 175 °C
73 | COC(=O)c1cc(C(=O)NC2CCCCC2)c2cc(Cc3ccc(F)cc3)cnc2c1O | 212 to 213 °C
74 | COC(=O)c1cc(C(=O)NC2CCCC2)c2cc(Cc3ccc(F)cc3)cnc2c1O | 221 to 222 °C
75 | COC(=O)c1cc(C(=O)NN2CCOCC2)c2cc(Cc3ccc(F)cc3)cnc2c1O | > 250 °C
76 | COC(=O)c1cc(C(=O)NNC(C)=O)c2cc(Cc3ccc(F)cc3)cnc2c1O | 208 to 209 °C
77 | COC(=O)c1cc(C(=O)NNC=O)c2cc(Cc3ccc(F)cc3)cnc2c1O | 249 to 250 °C
78 | COC(=O)c1cc(C(=O)NN(C)C)c2cc(Cc3ccc(F)cc3)cnc2c1O | 198 to 199 °C
79 | COC(=O)c1cc(C(=O)NCCF)c2cc(Cc3ccc(F)cc3)cnc2c1O | 216 to 217 °C
80 | COC(=O)c1cc(C(=O)NN)c2cc(Cc3ccc(F)cc3)cnc2c1O | 156 to 157 °C
81 | COC(=O)c1cc(C(=O)NCC(N)=O)c2cc(Cc3ccc(F)cc3)cnc2c1O | 247 to 248 °C
82 | COC(=O)c1cc(C(=O)NCCOC(C)C)c2cc(Cc3ccc(F)cc3)cnc2c1O | 175 to 176 °C
83 | COC(=O)c1cc(C(=O)NCCOc2ccccc2)c2cc(Cc3ccc(F)cc3)cnc2c1O | 194 to 195 °C
84 | COC(=O)CNC(=O)c1cc(C(=O)OC)c(O)c2ncc(Cc3ccc(F)cc3)cc12 | 209 to 210 °C
85 | COC(=O)c1cc(C(=O)NC(C)(C)CO)c2cc(Cc3ccc(F)cc3)cnc2c1O | 204 to 205 °C
86 | COC(=O)c1cc(C(=O)NNC(=O)c2ccccc2)c2cc(Cc3ccc(F)cc3)cnc2c1O | 227 to 229 °C
87 | COC(=O)c1cc(C(=O)N2CCC(CO)CC2)c2cc(Cc3ccc(F)cc3)cnc2c1O | 161 to 162 °C
88 | CNNC(=O)c1cc(C(=O)OC)c(O)c2ncc(Cc3ccc(F)cc3)cc12 | 188 to 189 °C
89 | CCOC(=O)c1cc(C(=O)O)c2cc(Cc3ccc(F)cc3)cnc2c1O | 238 to 239 °C

From US7358249B2, “Heterocyclic compounds having inhibitory activity against HIV integrase” (Shionogi & Co., Ltd., priority 2002, dated 2008)
